Here are results for 21 molecules from patent publication US20230081426A1, “COMPOUNDS AND METHODS FOR KRAS MODULATION AND INDICATIONS THEREFOR” (Plexxikon Inc., priority 2020, published 2023).

The IC50 is the concentration at which inhibition is half-maximal.

Assay [1] addresses T1, G12D-mutant human KRAS (amino acid residues 1-188) (Homo sapiens, UniProt P01116, G12D).
T1 construct: G12D or G12C-mutant human KRAS (amino acid residues 1-188) with FLAG tag; made in house; host or cells: E. coli
Put plainly: KRAS Binding Disruption Assay (AlphaScreen; biotinylated KRpep-2d analogue or RAF1-RBD), G12D. Particulars: KRAS G12D; geometric mean; read-out: KRAS GMean IC50 (uM) MUTATION: G12D. In a few lines:
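AlphaScreen readout: signal falls as compound displaces biotinylated KRpep-2d analogue or RAF1-RBD from mutant KRAS. Both partners at 5-20 nM, 1 h binding at 25° C, then 10 μg/mL Anti-Flag acceptor and streptavidin donor beads for 1 h. IC50 by nonlinear regression of % inhibition.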
(Bead proximity is the source of the signal in Alpha formats.)

The target of assay [2] is T2, G12V-mutant human KRAS (amino acid residues 1-188) (Homo sapiens, UniProt P01116, G12V).
T2 construct: G12V-mutant human KRAS (amino acid residues 1-188) with FLAG tag was purified from E. coli; made in house; host or cells: E. coli
Put plainly: KRAS Binding Competition Assay (AlphaScreen; biotinylated KRpep-2d analogue), G12V. The note with it: geometric mean, read-out: KRAS GMean IC50 (uM) MUTATION: G12V.

As to `CN1CCC[C@H]1COc1nc(N2[C@@H]3CC[C@H]2CN(C(=O)CC2CCCNC2)C3)c2ccc(-c3cc(O)cc4ccccc34)cc2n1` (stereo partly drawn) [P-0190, 1-((1R,5S)-8-(7-(3-hydroxynaphthalen-1-yl)-2-(((S)-1-methylpyrrolidin-2-yl)methoxy)quinazolin-4-yl)-3,8-diazabicyclo[3.2.1]octan-3-yl)-2-(piperidin-3-yl)ethan-1-one], the IC50 in assay [1] and in assay [2] was 10 to 100 µM in each case.

For the molecule `CN1CCC[C@H]1COc1nc(N2[C@@H]3CC[C@H]2CN(C(=O)CCC2CCCCN2)C3)c2ccc(-c3cc(O)cc4ccccc34)cc2n1` (stereo partly drawn) [P-0191, 1-((1R,5S)-8-(7-(3-hydroxynaphthalen-1-yl)-2-(((S)-1-methylpyrrolidin-2-yl)methoxy)quinazolin-4-yl)-3,8-diazabicyclo[3.2.1]octan-3-yl)-3-(piperidin-2-yl)propan-1-one], the half-maximal inhibitory concentration (IC50) in assay [1] and in assay [2] was 10 to 100 µM in each case.

For the molecule `CN1CCC[C@H]1COc1nc(N2[C@@H]3CC[C@H]2CN(C(=O)CCC2CCCNC2)C3)c2ccc(-c3cc(O)cc4ccccc34)cc2n1` (stereo partly drawn) [P-0192, 1-((1R,5S)-8-(7-(3-hydroxynaphthalen-1-yl)-2-(((S)-1-methylpyrrolidin-2-yl)methoxy)quinazolin-4-yl)-3,8-diazabicyclo[3.2.1]octan-3-yl)-3-(piperidin-3-yl)propan-1-one], the IC50 in assay [1] and in assay [2] was 10 to 100 µM in each case.

As to `CN1CCC[C@H]1COc1nc(N2[C@@H]3CC[C@H]2CN(C(=O)CCC2CCNCC2)C3)c2ccc(-c3cc(O)cc4ccccc34)cc2n1` [P-0193, 1-((1R,5S)-8-(7-(3-hydroxynaphthalen-1-yl)-2-(((S)-1-methylpyrrolidin-2-yl)methoxy)quinazolin-4-yl)-3,8-diazabicyclo[3.2.1]octan-3-yl)-3-(piperidin-4-yl)propan-1-one], the IC50 in assay [1] and in assay [2] was 10 to 100 µM throughout.

For the molecule `CN1CCC[C@H]1COc1nc(N2[C@@H]3CC[C@H]2CN(C(=O)CCC2CNCCN2)C3)c2ccc(-c3cc(O)cc4ccccc34)cc2n1` (stereo partly drawn) [P-0194, 1-((1R,5S)-8-(7-(3-hydroxynaphthalen-1-yl)-2-(((S)-1-methylpyrrolidin-2-yl)methoxy)quinazolin-4-yl)-3,8-diazabicyclo[3.2.1]octan-3-yl)-3-(piperazin-2-yl)propan-1-one], the IC50 in assay [1] and in assay [2] was 10 to 100 µM each time.

`CN1CCC[C@H]1COc1nc(N2[C@@H]3CC[C@H]2CN(C(=O)CCCn2ccnc2)C3)c2ccc(-c3cc(O)cc4ccccc34)cc2n1` [P-0195, 1-((1R,5S)-8-(7-(3-hydroxynaphthalen-1-yl)-2-(((S)-1-methylpyrrolidin-2-yl)methoxy)quinazolin-4-yl)-3,8-diazabicyclo[3.2.1]octan-3-yl)-4-(1H-imidazol-1-yl)butan-1-one]: the IC50 in assay [1] and in assay [2] was 10 to 100 µM each time.

For the molecule `CN1CCC[C@H]1COc1nc(N2[C@@H]3CC[C@H]2CN(C(=O)CC2CCCC2O)C3)c2ccc(-c3cc(O)cc4ccccc34)cc2n1` (stereo partly drawn) [P-0196, 2-(2-hydroxycyclopentyl)-1-((1R,5S)-8-(7-(3-hydroxynaphthalen-1-yl)-2-(((S)-1-methylpyrrolidin-2-yl)methoxy)quinazolin-4-yl)-3,8-diazabicyclo[3.2.1]octan-3-yl)ethan-1-one], the IC50 in assay [1] and in assay [2] was 10 to 100 µM each time.

With `N#Cc1ccc(CCc2nc(N3[C@@H]4CC[C@H]3CNC4)c3ccc(-c4cc(O)cc5ccccc45)cc3n2)cc1` [P-0197, 4-(2-(4-((1R,5S)-3,8-diazabicyclo[3.2.1]octan-8-yl)-7-(3-hydroxynaphthalen-1-yl)quinazolin-2-yl)ethyl)benzonitrile], the IC50 in assay [1] fell in the range of 0.0001 to 10 µM; in assay [2], 10 to 100 µM.

As to `O=C(O)CCc1nc(N2[C@@H]3CC[C@H]2CNC3)c2ccc(-c3cc(O)cc4ccccc34)cc2n1` [P-0198, 3-(4-((1R,5S)-3,8-diazabicyclo[3.2.1]octan-8-yl)-7-(3-hydroxynaphthalen-1-yl)quinazolin-2-yl)propanoic acid], the results for the concentration for half-maximal inhibition (IC50) in assay [1] and in assay [2] were 0.0001 to 10 µM and 10 to 100 µM, respectively.

In the case of `CN(C)C(=O)CCc1nc(N2[C@@H]3CC[C@H]2CNC3)c2ccc(-c3cc(O)cc4ccccc34)cc2n1` [P-0199, 3-(4-((1R,5S)-3,8-diazabicyclo[3.2.1]octan-8-yl)-7-(3-hydroxynaphthalen-1-yl)quinazolin-2-yl)-N,N-dimethylpropanamide], the 50% inhibitory concentration (IC50) in assay [1] and in assay [2] was 10 to 100 µM each time.

For the molecule `Oc1cc(-c2ccc3c(N4[C@@H]5CC[C@H]4CNC5)nc(CC4CCNCC4)nc3c2)c2ccccc2c1` [P-0200, 4-(4-((1R,5S)-3,8-diazabicyclo[3.2.1]octan-8-yl)-2-(piperidin-4-ylmethyl)quinazolin-7-yl)naphthalen-2-ol], the half-maximal inhibitory concentration (IC50) in assay [1] was in the range of 0.0001 to 10 µM; in assay [2] it was 10 to 100 µM.

In the case of `CN1CCC(Cc2nc(N3[C@@H]4CC[C@H]3CNC4)c3ccc(-c4cc(O)cc5ccccc45)cc3n2)CC1` [P-0201, 4-(4-((1R,5S)-3,8-diazabicyclo[3.2.1]octan-8-yl)-2-((1-methylpiperidin-4-yl)methyl)quinazolin-7-yl)naphthalen-2-ol], the figures for the IC50 in assay [1] and in assay [2] were 0.0001 to 10 µM and 10 to 100 µM, respectively.

As to `CN1CCC[C@H]1COc1nc(N2[C@@H]3CC[C@H]2CN(C(=O)[C@@H]2C[C@@H](O)CN2)C3)c2ccc(-c3cc(O)cc4ccccc34)cc2n1` [P-0202, ((1R,5S)-8-(7-(3-hydroxynaphthalen-1-yl)-2-(((S)-1-methylpyrrolidin-2-yl)methoxy)quinazolin-4-yl)-3,8-diazabicyclo[3.2.1]octan-3-yl)((2S,4R)-4-hydroxypyrrolidin-2-yl)methanone], the concentration for half-maximal inhibition (IC50) in assay [1] lay in the range of 0.0001 to 10 µM; in assay [2], 10 to 100 µM.

As for `CN1CCN(CCCS(=O)(=O)N2[C@@H]3CC[C@H]2CN(c2nc(OCC45CCCN4CCC5)nc4c(F)c(-c5cc(O)cc6ccccc56)ccc24)C3)CC1` [P-0203, 4-(8-fluoro-4-((1R,5S)-8-((3-(4-methylpiperazin-1-yl)propyl)sulfonyl)-3,8-diazabicyclo[3.2.1]octan-3-yl)-2-((tetrahydro-1H-pyrrolizin-7a(5H)-yl)methoxy)quinazolin-7-yl)naphthalen-2-ol], the half-maximal inhibitory concentration (IC50) in assay [1] and in assay [2] was 0.0001 to 10 µM each time.

On to `CN1CCC[C@H]1COc1nc(N2[C@@H]3CC[C@H]2CN(C(=O)[C@@H]2C[C@@H](O)CN2)C3)c2ccc(-c3cc(O)cc4ccccc34)cc2n1` [P-0204, ((1R,5S)-8-(7-(3-hydroxynaphthalen-1-yl)-2-(((S)-1-methylpyrrolidin-2-yl)methoxy)quinazolin-4-yl)-3,8-diazabicyclo[3.2.1]octan-3-yl)((2S,4R)-4-hydroxypyrrolidin-2-yl)methanone], for which the concentration for half-maximal inhibition (IC50) in assay [1] and in assay [2] was 10 to 100 µM throughout.

With `CN1CCC[C@H]1COc1nc(N2[C@@H]3CC[C@H]2CN(C(=O)[C@H]2CCCN2)C3)c2ccc(-c3cc(O)cc4ccccc34)cc2n1` [P-0205, 4-((1R,5S)-3-(D-prolyl)-3,8-diazabicyclo[3.2.1]octan-8-yl)-7-(3-hydroxynaphthalen-1-yl)-2-(((S)-1-methylpyrrolidin-2-yl)methoxy)quinazoline], the concentration for half-maximal inhibition (IC50) in assay [1] fell in the range of 10 to 100 µM; in assay [2], 100 to 1000 µM.

For the molecule `CNCC(=O)N1C[C@H]2CC[C@@H](C1)N2c1nc(OC[C@@H]2CCCN2C)nc2cc(-c3cc(O)cc4ccccc34)ccc12` [P-0206, 1-((1R,5S)-8-(7-(3-hydroxynaphthalen-1-yl)-2-(((S)-1-methylpyrrolidin-2-yl)methoxy)quinazolin-4-yl)-3,8-diazabicyclo[3.2.1]octan-3-yl)-2-(methylamino)ethan-1-one], the IC50 in assay [1] and in assay [2] was 10 to 100 µM throughout.

For the molecule `CN1CCC[C@H]1COc1nc(N2[C@@H]3CC[C@H]2CN(C(=O)Cn2ccnc2)C3)c2ccc(-c3cc(O)cc4ccccc34)cc2n1` [P-0207, 1-((1R,5S)-8-(7-(3-hydroxynaphthalen-1-yl)-2-(((S)-1-methylpyrrolidin-2-yl)methoxy)quinazolin-4-yl)-3,8-diazabicyclo[3.2.1]octan-3-yl)-2-(1H-imidazol-1-yl)ethan-1-one], the IC50 in assay [1] and in assay [2] was 10 to 100 µM throughout.

Take `CN1CCC[C@H]1COc1nc(N2[C@@H]3CC[C@H]2CN(C(=O)NC2CN4CCC2CC4)C3)c2ccc(-c3cc(O)cc4ccccc34)cc2n1` (stereo partly drawn) [P-0208, (1R,5S)-8-(7-(3-hydroxynaphthalen-1-yl)-2-(((S)-1-methylpyrrolidin-2-yl)methoxy)quinazolin-4-yl)-N-(quinuclidin-3-yl)-3,8-diazabicyclo[3.2.1]octane-3-carboxamide]: the concentration for half-maximal inhibition (IC50) in assay [1] fell in the range of 0.0001 to 10 µM; in assay [2], 10 to 100 µM.

Take `CN1CCN(CCNC(=O)N2C[C@H]3CC[C@@H](C2)N3c2nc(OC[C@@H]3CCCN3C)nc3cc(-c4cc(O)cc5ccccc45)ccc23)CC1` [P-0209, (1R,5S)-8-(7-(3-hydroxynaphthalen-1-yl)-2-(((S)-1-methylpyrrolidin-2-yl)methoxy)quinazolin-4-yl)-N-(2-(4-methylpiperazin-1-yl)ethyl)-3,8-diazabicyclo[3.2.1]octane-3-carboxamide]: the IC50 in assay [1] and in assay [2] was 10 to 100 µM throughout.

On to `CN1CCC[C@H]1COc1nc(N2[C@@H]3CC[C@H]2CN(C(=O)Nc2cccnc2)C3)c2ccc(-c3cc(O)cc4ccccc34)cc2n1` [P-0210, (1R,5S)-8-(7-(3-hydroxynaphthalen-1-yl)-2-(((S)-1-methylpyrrolidin-2-yl)methoxy)quinazolin-4-yl)-N-(pyridin-3-yl)-3,8-diazabicyclo[3.2.1]octane-3-carboxamide], for which the IC50 in assay [1] and in assay [2] was 10 to 100 µM throughout.
